Converted amounts (≈) assume the structure as drawn.
What was measured:
[1] = Cytotoxicity against African green monkey Vero cells assessed as cell viability after 72 hrs by MTT assay; assay type: cell-based; settings: chlorocebus sabaeus
[2] = Elimination half life in ICR mouse at 50 mg/kg, po by HPLC analysis; assay type: ADME, organism-based; settings: in vivo, read-out: beta t1/2 (converted)
[3] = Aqueous solubility of the compound at pH 2 after 12 hrs by HPLC-UV method; assay type: physicochemical
[4] = test system: Mycobacterium tuberculosis; assay: Antitubercular activity against Mycobacterium tuberculosis H37Rv after 7 days by microplate alamar blue assay; assay type: functional; settings: 168 h
[5] = Tmax in ICR mouse at 50 mg/kg, po by HPLC analysis; assay type: ADME, organism-based; settings: in vivo
[6] = MRT in ICR mouse at 50 mg/kg, po by HPLC analysis; assay type: ADME, organism-based; settings: in vivo
[7] = AUC (0 to infinity) in ICR mouse at 50 mg/kg, po by HPLC analysis; assay type: ADME, organism-based; parameters: dose 50 mg/kg, time infinity, route oral; settings: in vivo
[8] = Cmax in ICR mouse at 50 mg/kg, po by HPLC analysis; assay type: ADME, organism-based; parameters: dose 50 mg/kg, route oral; settings: in vivo
Mus musculus = assay: Acute toxicity in Kunming mouse assessed as mortality at 500 mg/kg, po measured during first 4 hours and then each hour for next 24 hrs and at 8 hourly intervals for following 7 days post dose; assay type: organism-based; settings: in vivo

O=c1nc(N2CCC3(CCN(Cc4ccc(F)cc4)C3)CC2)sc2c([N+](=O)[O-])cc(C(F)(F)F)cc12
CC50 at 72 h [1]: 811 µM | half-life [2]: 3.11 h | solubility at 12 h [3]: 1.12 µg/mL (≈ 2.14 µM) | MIC90 [4]: < 0.035 µM | Tmax [5]: 1.08 h | MRT [6]: 4 h | AUC(0-inf) [7]: 6020 ng·h/mL | Cmax [8]: 1230 ng/mL

CC(C)(C)OC(=O)N1CC2(CCN(c3nc(=O)c4cc(C(F)(F)F)cc([N+](=O)[O-])c4s3)CC2)C1
MIC90 [4]: 1.92 µM (≈ 0.963 µg/mL)

CCOC(=O)CN1CC2(CCN(c3nc(=O)c4cc(C(F)(F)F)cc([N+](=O)[O-])c4s3)CC2)C1
MIC90 [4]: 0.444 µM (≈ 0.216 µg/mL)

O=C(CN1CCC2(CC1)CCN(c1nc(=O)c3cc(C(F)(F)F)cc([N+](=O)[O-])c3s1)CC2)NCc1ccccc1
MIC90 [4]: 6.42 µM (≈ 3.69 µg/mL)

CCOC(=O)CN1CCC2(CC1)CCN(c1nc(=O)c3cc(C(F)(F)F)cc([N+](=O)[O-])c3s1)CC2
MIC90 [4]: 0.542 µM (≈ 0.279 µg/mL)

O=c1nc(N2CCC3(CCN(Cc4cccc(F)c4)CC3)CC2)sc2c([N+](=O)[O-])cc(C(F)(F)F)cc12
CC50 at 72 h [1]: 1400 µM | half-life [2]: 3.53 h | solubility at 12 h [3]: 1.13 µg/mL (≈ 2.11 µM) | MIC90 [4]: 0.054 µM (≈ 0.029 µg/mL) | Tmax [5]: 0.67 h | Activity (Mus musculus): Non-Toxic | MRT [6]: 4.83 h | AUC(0-inf) [7]: 4870 ng·h/mL | Cmax [8]: 901 ng/mL

COc1ccccc1CN1CCC2(CCN(c3nc(=O)c4cc(C(F)(F)F)cc([N+](=O)[O-])c4s3)CC2)C1
MIC90 [4]: 1.68 µM (≈ 0.896 µg/mL)

CCN(CC)C(=O)CN1CCC2(CC1)CCN(c1nc(=O)c3cc(C(F)(F)F)cc([N+](=O)[O-])c3s1)CC2
MIC90 [4]: 6.32 µM (≈ 3.42 µg/mL)

O=C(CN1CCC2(CC1)CCN(c1nc(=O)c3cc(C(F)(F)F)cc([N+](=O)[O-])c3s1)CC2)OCc1ccccc1
MIC90 [4]: 0.352 µM (≈ 0.203 µg/mL)

O=c1nc(N2CCC3(CCN(Cc4ccc(Br)cc4)CC3)CC2)sc2c([N+](=O)[O-])cc(C(F)(F)F)cc12
CC50 at 72 h [1]: 1680 µM | half-life [2]: 10.7 h | solubility at 12 h [3]: 1.17 µg/mL (≈ 1.96 µM) | MIC90 [4]: 0.057 µM (≈ 0.0341 µg/mL) | Tmax [5]: 1 h | Activity (Mus musculus): Non-Toxic | MRT [6]: 15.9 h | AUC(0-inf) [7]: 24600 ng·h/mL | Cmax [8]: 1680 ng/mL

COc1ccc(CN2CCC3(CCN(c4nc(=O)c5cc(C(F)(F)F)cc([N+](=O)[O-])c5s4)CC3)C2)cc1
CC50 at 72 h [1]: 86.2 µM | solubility at 12 h [3]: 1.4 µg/mL (≈ 2.62 µM) | MIC90 [4]: 0.112 µM (≈ 0.0599 µg/mL)

O=c1nc(N2CCC3(CCN(CC4CCCCC4)C3)CC2)sc2c([N+](=O)[O-])cc(C(F)(F)F)cc12
MIC90 [4]: 0.22 µM (≈ 0.112 µg/mL)

CC(C)(C)OC(=O)N1CCC2(CCN(c3nc(=O)c4cc(C(F)(F)F)cc([N+](=O)[O-])c4s3)CC2)C1
MIC90 [4]: 3.26 µM (≈ 1.68 µg/mL)

COc1ccc(CN2CCC3(CC2)CCN(c2nc(=O)c4cc(C(F)(F)F)cc([N+](=O)[O-])c4s2)CC3)cc1
MIC90 [4]: 1 µM (≈ 0.551 µg/mL)

O=c1nc(N2CCC3(CCN(Cc4cc(F)cc(F)c4)CC3)CC2)sc2c([N+](=O)[O-])cc(C(F)(F)F)cc12
CC50 at 72 h [1]: 1170 µM | half-life [2]: 4.68 h | solubility at 12 h [3]: 0.67 µg/mL (≈ 1.21 µM) | MIC90 [4]: < 0.035 µM | Tmax [5]: 0.5 h | Activity (Mus musculus): Non-Toxic | MRT [6]: 5.8 h | AUC(0-inf) [7]: 2600 ng·h/mL | Cmax [8]: 426 ng/mL

CC(C)(C)OC(=O)N1CCC2(CC1)CCN(c1nc(=O)c3cc(C(F)(F)F)cc([N+](=O)[O-])c3s1)CC2
MIC90 [4]: 0.219 µM (≈ 0.116 µg/mL)

CN1CCC2(CC1)CCN(c1nc(=O)c3cc(C(F)(F)F)cc([N+](=O)[O-])c3s1)CC2
MIC90 [4]: 33.5 µM (≈ 14.8 µg/mL)

O=c1nc(N2CCC3(CCN(CC4CCCCC4)CC3)CC2)sc2c([N+](=O)[O-])cc(C(F)(F)F)cc12
MIC90 [4]: 0.944 µM (≈ 0.495 µg/mL)

O=c1nc(N2CCC3(CCN(Cc4ccc(C(F)(F)F)cc4)CC3)CC2)sc2c([N+](=O)[O-])cc(C(F)(F)F)cc12
CC50 at 72 h [1]: 145 µM | half-life [2]: 3.59 h | solubility at 12 h [3]: 1.24 µg/mL (≈ 2.11 µM) | MIC90 [4]: < 0.035 µM | Tmax [5]: 1.33 h | Activity (Mus musculus): Non-Toxic | MRT [6]: 6.07 h | AUC(0-inf) [7]: 28700 ng·h/mL | Cmax [8]: 2700 ng/mL

COc1ccc(CN2CC3(CCN(c4nc(=O)c5cc(C(F)(F)F)cc([N+](=O)[O-])c5s4)CC3)C2)cc1
CC50 at 72 h [1]: 78.9 µM | solubility at 12 h [3]: 1.2 µg/mL (≈ 2.31 µM) | MIC90 [4]: 0.113 µM (≈ 0.0588 µg/mL)

COc1ccc(C(=O)N2CCC3(CC2)CCN(c2nc(=O)c4cc(C(F)(F)F)cc([N+](=O)[O-])c4s2)CC3)cc1
MIC90 [4]: 26.6 µM (≈ 15 µg/mL)

O=c1nc(N2CCC3(CCN(Cc4ccccc4)C3)CC2)sc2c([N+](=O)[O-])cc(C(F)(F)F)cc12
CC50 at 72 h [1]: 289 µM | solubility at 12 h [3]: 1.56 µg/mL (≈ 3.09 µM) | MIC90 [4]: 0.06 µM (≈ 0.0303 µg/mL)

O=c1nc(N2CCC3(CCN(Cc4ccccc4)CC3)CC2)sc2c([N+](=O)[O-])cc(C(F)(F)F)cc12
MIC90 [4]: 0.847 µM (≈ 0.439 µg/mL)

O=c1nc(N2CCC3(CCN(Cc4ccc(F)cc4)CC3)CC2)sc2c([N+](=O)[O-])cc(C(F)(F)F)cc12
MIC90 [4]: 0.21 µM (≈ 0.113 µg/mL)

O=c1nc(N2CCC3(CC2)CN(CC2CCCCC2)C3)sc2c([N+](=O)[O-])cc(C(F)(F)F)cc12
MIC90 [4]: 0.468 µM (≈ 0.232 µg/mL)

COc1cc(CN2CCC3(CC2)CCN(c2nc(=O)c4cc(C(F)(F)F)cc([N+](=O)[O-])c4s2)CC3)cc(OC)c1
MIC90 [4]: 0.825 µM (≈ 0.477 µg/mL)

CCOC(=O)CN1CCC2(CCN(c3nc(=O)c4cc(C(F)(F)F)cc([N+](=O)[O-])c4s3)CC2)C1
CC50 at 72 h [1]: 266 µM | half-life [2]: 3.46 h | solubility at 12 h [3]: 2.04 µg/mL (≈ 4.08 µM) | MIC90 [4]: 0.062 µM (≈ 0.031 µg/mL) | Tmax [5]: 0.67 h | Activity (Mus musculus): Non-Toxic | MRT [6]: 5.2 h | AUC(0-inf) [7]: 41.8 ng·h/mL | Cmax [8]: 17.6 ng/mL

NNC(=O)c1ccncc1 [ISONIAZID]
MIC90 [4]: 0.284 µM (≈ 0.0389 µg/mL)

O=c1nc(N2CCN(CC3CCCCC3)CC2)sc2c([N+](=O)[O-])cc(C(F)(F)F)cc12 [MACOZINONE]
CC50 at 72 h [1]: 1400 µM | half-life [2]: 2.87 h | solubility at 12 h [3]: 0.9 µg/mL (≈ 1.97 µM) | MIC90 [4]: < 0.035 µM | Tmax [5]: 0.83 h | MRT [6]: 3.73 h | AUC(0-inf) [7]: 5480 ng·h/mL | Cmax [8]: 1300 ng/mL

CO[C@H]1/C=C/O[C@@]2(C)Oc3c(C)c(O)c4c(O)c(c(/C=N/N5CCN(C)CC5)c(O)c4c3C2=O)NC(=O)/C(C)=C\C=C\[C@H](C)[C@H](O)[C@@H](C)[C@@H](O)[C@@H](C)[C@H](OC(C)=O)[C@@H]1C [RIFAMPIN]
MIC90 [4]: 0.092 µM (≈ 0.0757 µg/mL)

From ChEMBL document CHEMBL4033756, “Identification of Better Pharmacokinetic Benzothiazinone Derivatives as New Antitubercular Agents” (ACS Med Chem Lett, 2017)
